Among the data in ChEMBL document CHEMBL4813957, “Antitubercular properties of thiazolidin-4-ones - A review” (Eur J Med Chem, 2021) are IC50, MIC and inhibition values, retold here.

Structures are written as SMILES. In brackets after ≈: the same amount, converted by molar mass.

Assay [1] concerns Mycobacterium tuberculosis. Kind of assay: Antimycobacterial activity against Mycobacterium bovis BCG. It counts as functional, organism-based. Particulars: variant bovis BCG.
Assay [2] concerns Mycobacterium tuberculosis. Kind of assay: Antimycobacterial activity against Mycobacterium africanum measured up to 2 weeks. It counts as functional. Particulars: variant africanum, 336 h, time weeks <=2.
In assay [3] the test system is Mycobacterium tuberculosis. Kind of assay: Antimycobacterial activity Mycobacterium bovis BCG measured up to 2 weeks. It counts as functional. Particulars: variant bovis BCG, 336 h, time weeks <=2.
The subject of assay [4] is Mycobacterium tuberculosis. Nature of the assay: Antimycobacterial activity against Mycobacterium bovis BCG assessed as inhibition of bacteria at 30 ug/ml by nitrate reductase assay. Format: functional. Conditions: variant bovis BCG.

For the compound `O=C(O)CN1C(=O)/C(=C/c2ccc(Cl)cc2)SC1=S`, the IC50 in assay [1] was 7.4 µg/mL (≈ 23.6 µM).

With `O=C(O)CCCCCC1NC(=O)CS1` (centres undefined), the MIC in assay [2] was 0.2 µM (≈ 0.0435 µg/mL); in assay [3], 1.3 µM (≈ 0.282 µg/mL). As to `Cc1nc(-c2cnccn2)sc1C(=O)NN1C(=O)CSC1c1ccccc1` (centres undefined), in assay [4], the inhibition at 30 µg/mL came out at 62%.

Broadly, the IC50 is the midpoint of a concentration-inhibition curve. A higher IC50 goes with lower potency. The MIC is the smallest concentration in the dilution series that meets the test's criterion for growth inhibition. The term inhibition denotes the share of the control response that was lost under treatment.
